Entries after “also recorded” stand apart in the source; their conditions may differ.
What was measured:
[1] = molecular target: T1, Mcl-1/Puma interaction (Homo sapiens, UniProt Q07820); assay: BRET assay, Mcl-1/Puma interaction; type: cell-based; conditions: BRET in Hela cells, 10 μM, 16 hours
T1 construct: expressed in transfected cells; host or cells: HeLa cells
Procedure: (§1) Hela cells were seeded on 6-well plates and transfected with 200 ng/well of plasmid pRLuc-Bax, pRLuc-Puma or pRLuc-Noxa coding for BRET donors and 1 µg/well of peYFP-Bcl-xL or peYFP-Mcl-1 coding for BRET acceptors (or with pCMV-Bcl-xL or pCMV-Mcl-1 for control). Twenty-four hours after transfection, cells were trypsinized and re-seeded into white 96 well plate flat bottom, incubated for another day, and then treated with drugs for 16 hours at 10 μM. Light emission at 485 nm and 530 nm was measured consecutively using the Mithras fluorescence-luminescence detector LB 940 (Berthold) after adding the luciferase substrate, coelenterazine H (Uptima) at a final concentration of 5 μM. BRET ratios were calculated as described [Terrillon et al. (2003) Mol Endocrinol 17, 677-691, Vo et al. (2012) Eur J Med Chem., 286-93].

[2] = molecular target: T2, Noxa/Mcl-1 interaction (Homo sapiens, UniProt Q07820); assay: BRET assay, Noxa/Mcl-1 interaction; type: cell-based; conditions: BRET in Hela cells, 10 μM, 16 hours
T2 construct: expressed in transfected cells; host or cells: HeLa cells
Procedure: as §1

[3] = tested on: IGROV1-R10 chemoresistant ovarian cancer cells; assay: Pyridoclax / ABT-737 association, apoptotic cell death; type: cell-based; conditions: IGROV1-R10, single agent
Procedure: (§2) FIG. 4 represents the effect of the association of Pyridoclax with ABT-737 on chemoresistant ovarian cancer cells IGROV1-R10 (top) and SKOV3 (bottom). Cells were concomitantly (A, E) or sequentially (B) exposed to 25 μM Pyridoclax and 5 μM ABT-737, and cellular effects were assessed either longitudinally (A, B, E) or after 24 h (C, D, F). [A, B, E] real time cellular activity assessed by impedancmetry (xCELLigence technology), after concomitant exposure (A, E) or sequential exposure (B; 24 h Pyridoclax, then ABT-737). [C]: Cellular morphology and DNA content histograms after a 24 h concomitant exposure. [D and F]: PARP and caspase 3 cleavage after a 24 h concomitant exposure.
(§3) Adherent and floating cells were pooled, washed with 1×PBS and centrifuged at 200 g for 5 min before staining by Annexin V, propidium iodide or both, as recommended by the manufacturer (Roche Diagnostic, Indianapolis, USA). Briefly, 100 μl of Annexin V—Flit or propidium iodide or both were added on the cells pellet (10^6 cells) and incubated 15 minutes at room temperature in obscurity. 500 μl of sample buffer was then added on the suspensions that were thereafter analyzed using a Gallios flow cytometer (Beckman Coulter, Roissy, France) and cell cycle distribution was determined using Kaluza acquisition software (Beckman Coulter).
(§4) Cells were rinsed with ice-cold PBS, suspended in a lysis buffer [RIPA:NaCl 150 mM, Tris (pH 8) 50 mM, Triton X100 1%, PMSF 4 mM, EDTA 5 mM, NaF 10 mM, NaPPi 10 mM, Na3OV4 1 mM, aprotinin 0.5 μl/ml and 4.6 ml ultra pure water] and incubated on ice for 30 minutes. Lysates were collected after centrifugation (13200 g, 10 min, 4° C.) and protein concentrations were determined using the Bradford assay (Bio-Rad, Hercules, USA). 20 μg of protein were separated by SDS-PAGE on a 4-12% gradient polyacrylamide gel (Invitrogen, Cergy-Pontoise, France) and transferred to Hybond-PVDF membranes (Amersham, Orsay, France). […]

[4] = tested on: SKOV3 chemoresistant ovarian cancer cells; assay: as above; type: cell-based, human; conditions: SKOV3, single agent
Procedure: as §2, §3, §4

T1 sequence (Q07820 whole entry): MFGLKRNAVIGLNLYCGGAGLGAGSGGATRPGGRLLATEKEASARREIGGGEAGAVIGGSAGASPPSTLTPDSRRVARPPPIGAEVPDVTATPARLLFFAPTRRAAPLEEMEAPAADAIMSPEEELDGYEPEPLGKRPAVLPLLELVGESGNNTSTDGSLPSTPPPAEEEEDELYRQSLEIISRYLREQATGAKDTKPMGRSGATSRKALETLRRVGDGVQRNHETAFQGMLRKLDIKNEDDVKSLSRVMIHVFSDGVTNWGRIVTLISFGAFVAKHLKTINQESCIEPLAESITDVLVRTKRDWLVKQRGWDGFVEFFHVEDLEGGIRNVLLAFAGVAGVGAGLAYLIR
T2 sequence (Q07820 whole entry): as above

`CN(C)CC[C@H](CSc1ccccc1)Nc1ccc(S(=O)(=O)NC(=O)c2ccc(N3CCN(Cc4ccccc4-c4ccc(Cl)cc4)CC3)cc2)cc1[N+](=O)[O-]` [ABT-737, 4-[4-[[2-(4-chlorophenyl)phenyl]methyl]piperazin-1-yl]-N-[4-[[(2R)-4-(dimethylamino)-1-phenylsulfanylbutan-2-yl]amino]-3-nitrophenyl]sulfonylbenzamide, reference compound] was tested, and the “effect on Mcl-1/Puma interaction” value [1] was “not able to modify these interactions; also recorded: not able to modify this interaction”, the “effect on Noxa/Mcl-1 interaction” value [2] was “not able to modify these interactions” and the “cell death as single agent” value [3] was “neither ABT-737 nor Pyridoclax induced cell death as single agents”. For the same compound, the “cell death as single agent” value [4] was “neither ABT-737 nor Pyridoclax induced cell death as single agents”.

— patent publication US10307410B2, “Mcl-1 modulating compounds for cancer treatment” (CENTRE REGIONAL DE LUTTE CONTRE LE CANCER FRANCOIS BACLESSE, priority 2014, dated 2019)
